Test results published in patent US6727244B2, “Mammalian metabolites of a tachykinin receptor antagonist” (Merck & Co., Inc., priority 2000, dated 2004).

Legend:
[1] = molecular target: T1, recombinant human CYP isozymes (Homo sapiens, UniProt P08684); experiment: metabolism by microsomes containing recombinant human CYP isozymes; assay type: in vitro ADME; conditions: parent to M-1 (N-dealkylation); M-1 to M-2 (oxidation); M-3 to M-4 (hydroxylation); M-2 to M-5 (conversion)
T1 construct: host or cells: Baculovirus-infected sf21 insect cells (microsomes)
T1 sequence (P08684 2-503 limits assumed): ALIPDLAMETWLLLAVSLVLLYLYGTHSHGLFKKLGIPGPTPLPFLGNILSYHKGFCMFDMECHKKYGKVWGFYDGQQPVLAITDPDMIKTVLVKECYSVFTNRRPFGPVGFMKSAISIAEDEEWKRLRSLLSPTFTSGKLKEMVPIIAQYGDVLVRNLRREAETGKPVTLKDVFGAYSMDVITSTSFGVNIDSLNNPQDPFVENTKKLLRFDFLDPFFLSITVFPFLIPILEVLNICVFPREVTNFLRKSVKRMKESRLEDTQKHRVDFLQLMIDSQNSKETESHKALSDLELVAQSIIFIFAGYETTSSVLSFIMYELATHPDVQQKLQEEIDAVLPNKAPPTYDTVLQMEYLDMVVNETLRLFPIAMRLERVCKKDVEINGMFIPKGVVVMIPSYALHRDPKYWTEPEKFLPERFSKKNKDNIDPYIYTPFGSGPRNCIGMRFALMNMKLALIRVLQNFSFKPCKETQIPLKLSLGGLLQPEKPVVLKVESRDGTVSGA
Protocol: Hepatocytes were harvested from male Sprague-Dawley rat livers or human livers and cultured on a matrigel support and treated with 0.1 μM dexamethasone or 50 μM rifampicin, respectively, for 48 hr prior to the addition of the test compounds. A 2.5 mM stock solution of [^14C]2-(R)-(1-(R)-(3,5-bis(trifluoromethyl)-phenyl)ethoxy)-3-(S)-(4-fluoro)phenyl-4-(3-(5-oxo-1H,4H-1,2,4-triazolo)methylmorpholine, [^14C]M-1 or [^14C]M-2 in DMSO was added to the plates such that the final concentration of test compound was 25 μM and DMSO was 1% (v/v). The cultures were incubated for 4, 6 or 24 hr for rat hepatocytes and 48 hr for human hepatocytes. The incubation mixtures (500 μL) contained 10 μM of test compound, 100 mM phosphate buffer pH 7.4, NADPH-regenerating system, microsomes containing expressed CYP isoforms (CYP1A2, CYP2A6, CYP2B6, CYP2C8, CYP2C9, CYP2C19, CYP2D6, CYP2E1 or CYP3A4) and cytochrome P-450 reductase. The reactions were initiated by adding NADP and proceeded at 37° C. for 15-45 min. Acetonitrile extracts from microsomal and hepatocyte incubates were dissolved in 50% aqueous methanol and fractionated by HPLC. The separation was accomplished on a Zorbax RX C8 analytical column (5 μm, 4.6×250 mm). The mobile phase consisted of solvent A (10 mM ammonium acetate in water) and solvent B (7.3 mM ammonium acetate in 92.7% acetonitrile and 7.3% methanol. The column was eluted by a linear gradient from 35 to 80% B over 40 min at a flow rate of 1 mL/min. Fractions of major metabolites were subjected to LC-MS/MS analysis. Further purification was done using isocratic conditions prior to NMR analysis.
The incubation mixtures (500 μL) contained 10 or 25 μM of test compounds, 100 mM phosphate buffer pH 7.4, NADPH-regenerating system (5 mM glucose-6-phosphate, 1 mM NADP and 0.7 I.U/mL glucose 6-phosphate dehydrogenase), 0.5 to 2 mg/mL liver microsomal protein prepared from rats and humans or microsomes from Baculovirus-infected sf21 cells containing 20 to 200 pmol expressed CYP isoforms (CYP1A2, CYP2A6, CYP2B6, CYP2C8, CYP2C9, CYP2C19, CYP2D6, CYP2E1 or CYP3A4) and cytochrome P450 reductase. Stock solutions of the substrates in methanol were made such that final concentration of methanol in the reaction mixture was 3%. The reactions were initiated by adding 50 μL of 10 mM NADP and proceeded at 37° C. for 15-45 min. After incubation, the reactions were terminated by the addition of four volumes of acetonitrile. The suspensions were mixed vigorously and centrifuged at 3000×g for 5 min. The supernatants were dried and redissolved in 50% methanol for HPLC analysis using method A described below.

[2] = oxidative metabolism in liver microsomes from rats; assay type: in vitro ADME; conditions: rat liver microsomes, 15 min incubation
Protocol: All liver microsomal and cytosolic fractions were prepared using the following procedure. Thawed livers were homogenized with 2 volumes of 50 mM Tris-buffer (pH 7.5) containing 1.15% KCl. For microsomal and cytosolic preparations, the homogenate was centrifuged for 20 min at 9,000×g and the resulting supernatant was centrifuged for 60 min at 105,000×g. The resulting cytosolic fractions were re-centrifuged at 105,000×g for 60 min. Fractions of cytosol were aliquoted into small tubes and stored at −70° C. Subsequently, the microsomal pellets were washed with 10 mM EDTA containing 1.15% KCl and were centrifuged at 105,000×g for 60 min. Washed microsomes were resuspended in 10 mM potassium phosphate buffer (pH 7.4) containing 250 mM sucrose, aliquoted into small tubes, and stored at −70° C. Protein concentrations were determined by a modified Lowry assay (Smith et al., 1985). The specific cytochrome P450 content in each microsomal preparation was measured as described by Omura and Sato, J. Biol. Chem. 239, 2370-2378 (1964). […]
Method A was conducted on a Shimadzu HPLC system (Shimadzu Scientific Instruments Inc., Columbia Md.). The parent compounds and their metabolites were monitored directly using a radiometric detector (INUS Systems Inc. Tampa, Fla.) and Ultima-Flow M (Packard Instrument Co., Meridan Conn.) as scintillant at a flow rate of 3 mL/min. […]

Compound: C[C@@H](O[C@H]1OCCN[C@H]1c1ccc(F)cc1)c1cc(C(F)(F)F)cc(C(F)(F)F)c1 [Metabolite M-1, (2R,3S)-2-[(1R)-1-[3,5-bis(trifluoromethyl)phenyl]ethoxy]-3-(4-fluorophenyl)morpholine]
- CYP isozyme primarily responsible for the metabolic step [1]: CYP3A4
- parent compound remained after incubation [2]: ~50%
